Each block holds one molecule with its values, some of them ahead of it. Where no end group is shown, it is not given here. 5‑FAM = 5-carboxyfluorescein
How the values were obtained:
15N-labeled PHD1 (KDM5A) = target: T1, 15N-labeled PHD1 (KDM5A) (Homo sapiens, UniProt P29375); experiment: 2D 1H-15N HSQC NMR binding assay; details: for perturbation of some residues: most perturbed residues
T1 construct: PHD1(S287-E344) construct; GST (N, cleaved yes); made in house; host or cells: E. coli BL21 (DE3), M9 minimal media with 15N ammonium chloride
T1 sequence (P29375 287-344): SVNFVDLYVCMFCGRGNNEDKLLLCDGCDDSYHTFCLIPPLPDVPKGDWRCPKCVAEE
Method: The binding of the ChemBridge screen hits to PHD1 was further evaluated using 2D ^1H–^15N HSQC NMR spectroscopy. This direct binding method allowed us to monitor binding by observing any ligand-induced changes in the previously assigned ^1H–^15N PHD1 amino acid resonances.[12] The HSQC spectra of 50 μM ^15N-labeled PHD1 with DMSO were overlaid with the spectra of the ^15N-labeled PHD1 incubated with 1 mM compound. […] Compound 715 958 was insoluble in the NMR buffer at this concentration and was not evaluated. […]
Nuclear magnetic resonance (NMR) binding assays
A PHD1(S287-E344) construct was used in NMR studies, as previously described.4 Briefly, the GST-PHD1 fusion construct was expressed in M9 minimal media containing 15N ammonium chloride. The labeled GST-PHD1 was purified and the GST tag was cleaved as described in the Expression of GST-PHD1(S287-E344) and GST tag removal section. For 2D 1H, 15N Fast HSQC (FHSQC) binding experiments, 50 μM 15N-labeled PHD1 was used and spectra were measured after the addition of DMSO-d6 or compound at 1 mM in DMSO-d6 for single concentration experiments. The NMR samples were prepared in 50 mM HEPES pH 7.5, 150 mM KCl buffer with 5 mM BME, 100 μM ZnCl2, and 10% D2O at a final concentration of 2.4% DMSO-d6. The HSQC spectra were collected on a 600 MHz Bruker Avance NEO spectrometer equipped with an actively shielded Z-gradient […] TCI cryoprobe using programs from the pulse program library (TopSpin 4.0.6). FHSQC acquisition parameters were: NS = 8, acquisition time = 0.106 s 1H, 0.060 s 15N. All experiments were carried out at 298 K (calibrated with 4% v/v MeOH […]
For 2D 1H, 15N FHSQC titration experiments, 50 μM 15N-labeled PHD1 was incubated with 0, 0.5, 1, 2, or 4 mM B2 sample with a final concentration of 2.9% DMSO-d6 for all samples. The NMR samples were prepared in 50 mM HEPES pH 7.5, 150 mM KCl buffer with 5 mM BME, 100 μM ZnCl2, and 5% D2O. The 2D 15N FHSQC spectra for the titration series were recorded at 298 K on a Bruker 800 MHz AVANCE-I spectrometer equipped with an actively shielded Z-gradient TCI cryoprobe using programs from the pulse program library (TopSpin 4.0.8). FHSQC acquisition parameters were: NS = 8, acquisition time = 0.082 s 1H, 0.045s 15N. The analysis of the chemical shift perturbation of the amide cross-peaks during the titration with the ligand was performed using CCPNMR Analysis software and use PHD1 with 2.9% DMSO-d6 as the reference.7 Apo PHD1 backbone assignments were imported from the BMRB (entry 30808).4 The chemical shift perturbations for all the NMR experiments were calculated in CCPNMR v3.2, which uses the following equation:
∆ chemical shift = ∆H2 + 0.15(∆N)2

[1] = target: T2, GST-PHD1 (PHD1 finger of KDM5A) (Homo sapiens, UniProt P29375); experiment: Competitive-binding fluorescence polarization (FP) assay, displacement of 5-FAM H3K4me0 10-mer from GST-PHD1; details: for inhibition at 1000 µM: read-out: %I at 1 mM; for IC50: FP concentration-response, HTS assay conditions, read-out: approximate IC50
T2 construct: GST-PHD1(S287-E344); made in house; host or cells: E. coli BL21 (DE3), pET41a
T2 sequence (P29375 287-344): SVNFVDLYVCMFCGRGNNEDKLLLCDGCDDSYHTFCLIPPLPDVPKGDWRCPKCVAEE
Description: Fluorescence polarization (FP) has been widely used as a biophysical method to detect and quantify disruptions in protein–protein and protein–peptide interactions.[33,34] It served as the primary assay in the high-throughput screening (HTS) campaign to identify ligands for the PHD1 finger (Fig. 1b). The FP assay includes a GST-labeled […] construct and its H3K4me0 10-mer peptide substrate (Fig. 1c and d).[21,22] […]
Fig. 2 Dose-dependent inhibition of GST-PHD1 − H3 tail interaction by screen hits obtained from HTS of the NCI collection. […] DMSO is used as the negative (−) control (0% inhibition).
Fluorescence polarization high-throughput screening
To test the activity of purified GST-PHD1(S287-E344), direct-binding and competitive-binding fluorescence polarization (FP) were done, as previously described.3,4 For screening, GST-PHD1(S287-E344) was diluted in buffer (50 mM HEPES, pH 7.5, 50 mM KCl, 0.01% Tween-20, 1 mM TCEP) with 20 nM 5-carboxyfluorescein-labeled H3 10-mer peptide and with or without 0.1% bovine gamma globulin (BGG). This was treated as the assay buffer (with 0.1% BGG) and also as the negative control. For the positive control, 120 μM unlabeled H3K4 10-mer peptide was added to the assay buffer. The assay buffer was dispensed using the EL406 Biotek liquid dispenser onto black, round-bottom low volumes 384-microwell plates (Corning 4514) to a final volume of 10 μL per well. DMSO (10 nL or 50 nL) or screening compounds at 10 nL (ChemBridge Premium Diversity collection at 10 μM final) or 50 nL (ML fragments and NCI libraries at 50 μM final) was added to plates containing the assay buffer using the BioMek liquid handler/dispenser. The final DMSO in the samples was either 0.1% or 0.5%. Fluorescence polarization measurements were performed directly and after 45 minutes of incubation at room temperature using a Perkin Elmer Envision and XCite 2105 multimode microplate reader equipped with a stacker. Excitation light was delivered with a xenon flash lamp at 480/30 nm (BW) and emission was collected after passing through an emission filter (535/25 nm). For fluorescence polarization experiments, two 535/40 nm filters (S, P) and dual dichroic D505/D535 nm mirrors were used.
For FP-based assay optimization, the assay signal dynamic range was evaluated using the negative and positive control buffers with varying amounts of GST-PHD1 (0.5, 1, 1.5, or 2 μM) in the presence or absence of 0.1% BGG. For each condition, buffer was dispensed into 3 columns of a 384-well plate (48 wells each) using the BioMek liquid dispenser and the FP signal was recorded. The Z′ value reports on the assay robustness by reflecting both the dynamic range and the data variation associated with assay measurements.5 The Z′ value is given by the following equation: […]
where σ represents the standard deviation, PC represents the positive control, NC represents the negative control, and μ represents the mean value of the FP signal.
Screen results were analyzed using the UCSF SMDC web application called HiTS […]
(http://smdc.ucsf.edu/hits/). […]
equal to 3 standard deviations of the mean percent inhibition values, where the negative control is set to 0% inhibition and the positive control is set to 100% inhibition. Cheminformatics analysis on the screen hits was done using DataWarrior, an open-source program for data visualization and analysis with chemical intelligence.6 The Tanimoto coefficient was used to gauge the similarity and diversity of screen hits and cluster any compounds with greater than 75% similarity.
Screen hits were repurchased when available. Structurally similar derivatives were purchased when exact compounds were not available for purchase. Compound purity was confirmed by LCMS. All compounds were dissolved in DMSO-d6 to a final concentration of 40 mM unless otherwise specified. All putative screen hits were confirmed in dose-response using the competitive binding fluorescence polarization […]
assay. […]

[2] = Solubility in the NMR buffer; assay type: physicochemical; details: 1 mM in 50 mM HEPES pH 7.5, 150 mM KCl NMR buffer
Method: The binding of the ChemBridge screen hits to PHD1 was further evaluated using 2D ^1H–^15N HSQC NMR spectroscopy. This direct binding method allowed us to monitor binding by observing any ligand-induced changes in the previously assigned ^1H–^15N PHD1 amino acid resonances.[12] The HSQC spectra of 50 μM ^15N-labeled PHD1 with DMSO were overlaid with the spectra of the ^15N-labeled PHD1 incubated with 1 mM compound. […] Compound 715 958 was insoluble in the NMR buffer at this concentration and was not evaluated.
The six NCI screen hits confirmed by dose response in the FP assay were further evaluated by 2D ^1H–^15N HSQC NMR at 1 mM to assess their direct binding to PHD1 (Fig. S5, ESI ^†). Compound 990 670 was insoluble in the NMR buffer and was excluded from further consideration. Out of the five compounds evaluated, 991 830, 990 856, and 988 385 caused very minor CSP on PHD1 (average shifts ≤ 0.002 ppm; Fig. S5a–c, ESI ^†). […] The observed perturbations are low, but in the range of those induced by competitive binding fragment ligands evaluated at 5 mM with the PHD finger of BAZ2B, for which the perturbations observed were up to 0.035 ppm.[19] Residue Cys322, one of the Zn(II) ligands in the first zinc finger in PHD1, is the most affected by the presence of oxazepine 516 969 (Δδ of 0.009 ppm; Fig. S5d, ESI ^†). […]

[3] = target: GST-labeled PHD1(S283-E344) construct of KDM5A (two Zn(II) ions bound (PHD zinc finger)); experiment: fluorescence polarisation; competitive displacement of 5-FAM H3 10-mer (10 nM) from GST-PHD1 (2 μM) by unlabeled H3 10-mer peptide; triplicate measurements; details: both partners purified
[4] = target: GST-labeled PHD1(S283-E344) construct of KDM5A; experiment: fluorescence polarisation; direct binding of C-terminal 5-FAM H3 10-mer peptide to GST-PHD1; triplicate measurements
[5] = 1 mM compound, quadruplicate (n = 1 for R1 = OBn; n = 2 for R1 = Me)

average shifts (CSP on PHD1) (15N-labeled PHD1 (KDM5A); 50 μM 15N PHD1, 1 mM compound): ≤ 0.002 ppm
Molecule: O=C(C1CC1)N1CCc2sc(S(=O)(=O)Nc3cccc(Cl)c3F)cc2C1 [990 856]

average shifts (CSP on PHD1) (15N-labeled PHD1 (KDM5A); 50 μM 15N PHD1, 1 mM compound): ≤ 0.002 ppm
Molecule: Cc1c(CCC(=O)N2CCCC2C(=O)O)c(=O)oc2c(C)c(O)ccc12 (stereo not drawn) [991 830]

%I at 1 mM [1, 5]: 45% | inhibition at 1000 µM [1, 5]: 45% | IC50 [1]: ~1300 µM | chemical shift perturbations on PHD1 in titration (15N-labeled PHD1 (KDM5A); B2 at 0.5, 1, 2 and 4 mM with 50 μM 15N PHD1): chemical shift perturbations are small
Molecule: CC(=O)c1c(C)oc2ccc(NS(=O)(=O)c3cccc(C(=O)O)c3)cc12 [Compound B2, 3-(N-(3-acetyl-2-methylbenzofuran-5-yl)sulfamoyl)benzoic acid]

Ki [3]: 0.95 ± 0.14 µM
B1: unlabeled H3 10-mer peptide (peptide, UniProt P68431 2-11, looked up)
peptide: ARTKQTARKS
notes: histone H3 N-terminal tail 10-mer with unmodified K4 (H3K4me0); also called unlabeled H3K4me0 10-mer; H3K4me0 10-mer peptide

Kd [4]: 0.95 µM
Molecule: ARTKQTARKS-{5‑FAM} [C-terminal 5-FAM H3 10-mer peptide, P68431 2-11]

Continued, molecule first:

Molecule: CSc1nnc2c(n1)OC(c1ccncc1)Nc1ccccc1-2 (stereo not drawn) [516 969]
average shifts (CSP on PHD1) (15N-labeled PHD1 (KDM5A); 50 μM 15N PHD1, 1 mM compound): 0.0025–0.0033 ppm | Δδ of residue Cys322 (15N-labeled PHD1 (KDM5A); 50 μM 15N PHD1, 1 mM compound): 0.009 ppm | perturbation of some residues (15N-labeled PHD1 (KDM5A); 50 μM 15N PHD1, 1 mM compound): greater than 0.008 ppm

Molecule: CCc1nnc(NS(=O)(=O)c2ccc(NC(=O)c3ccc(OC)c(OC)c3)cc2)s1 [988 385]
average shifts (CSP on PHD1) (15N-labeled PHD1 (KDM5A); 50 μM 15N PHD1, 1 mM compound): ≤ 0.002 ppm | Δδ of residue N304 (15N-labeled PHD1 (KDM5A); 50 μM 15N PHD1, 1 mM compound): > 0.01 ppm

Molecule: Cc1oc2ccc(NS(=O)(=O)c3ccc(C(=O)O)cc3)cc2c1C(=O)OCc1ccccc1 [990 099]
inhibition at 1000 µM [1, 5]: 45% | IC50 [1]: > 1500 µM | average shifts (CSP on PHD1) (15N-labeled PHD1 (KDM5A); 50 μM 15N PHD1, 1 mM compound): 0.0025–0.0033 ppm | perturbation of some residues (15N-labeled PHD1 (KDM5A); 50 μM 15N PHD1, 1 mM compound): greater than 0.008 ppm

Molecule: Cc1ccc(N2CC(c3nnc(NC(=O)c4c(-c5ccccc5)noc4C)s3)CC2=O)cc1C (stereo not drawn) [990 670]
solubility in the NMR buffer [2]: insoluble

From PMC10915964, “Identifying ligands for the PHD1 finger of KDM5A through high-throughput screening†” (RSC Chemical Biology, 2023)
